According to US9375395B2, “Compositions comprising an NFκB-inhibitor and a tropoelastin promoter” (JOHNSON & JOHNSON CONSUMER INC., priority 2009, dated 2016):

Key:
[1] = test system: NFκB; assay: NFκB-INHIBITION TEST (NF-kB gene reporter luciferase, TNFα-stimulated FB293 cells); assay type: cell-based, human
Protocol: The NFκB-INHIBITION TEST is conducted in the following manner. FB293 cells, a stable transfected human epithelial cell line containing the gene reporter for NF-kB are used. They may be obtained from, e.g., Panomics (Fremont, Calif.). FB293 are plated at a density of 5×10^4 cells/mL in a suitable medium, e.g., Dulbecco's modified Eagle's medium (DMEM) supplemented with 10% fetal bovine serum (Invitrogen, San Diego, Calif.). The FB293 cells are stimulated with 100 ng/mL of Tumor Necrosis Factor-α (TNFα, available from Sigma-Aldrich of St Louis, Mo.) in the presence of the test sample. Separately, a control sample is tested wherein no test sample is applied. Following a 24-hour incubation at 37° C. with 5% CO2, cells are lysed with 40 μl of reporter lysis buffer (Promega, Madison, Wis.). A 20-μl aliquot of the lysate is assayed using a luciferase assay kit (Promega) and counted for 10 s in a Lmax luminometer (Molecular Devices, Sunnyvale, Calif.) with the data represented as the relative light unit/second. Percent NFκB Inhibition of the test sample is calculated as: NFκB Inhibition=[1−(Lsample/Lcontrol)]*100 where Lsample is the luminescence of the sample and Lcontrol is the luminescence of the control.
The NFκB-INHIBITION TEST described above was performed on test samples of Bay 11-7082 (Sigma-Aldrich, St. Louis, Mo.), Tetrahydrocurcuminoids CG (Sabinsa Corporation, Piscataway, N.J.), as well as various concentrations of 4-hexylresorcinol. The results are shown in Table 1, in which NF-kB Gene Reporter Activation (Luminescence, L) is reported for the test samples and a control sample. Percent NF-kB Inhibition is also reported.
The NFκB-INHIBITION TEST described above was performed on a series of substituted resorcinols each having a concentration of 10 ug/ml.

[2] = test system: elastin promoter; assay: TROPOELASTIN PROMOTER ASSAY (elastin promoter-luciferase reporter in H9C2 cells); assay type: cell-based, rat; details: 0.1 ug/ml on active basis; for Percent Change Over Vehicle: 24 h (Table 3)
Protocol: Suitable tropoelastin promoters may be determined, for example, using the TROPOELASTIN PROMOTER ASSAY. The TROPOELASTIN PROMOTER ASSAY is performed as follows. Rat cardiac myoblasts H9C2 (which may be purchased, for example from ATCC of Manassas, Va.) are used. Cultures are maintained in Dulbecco's modified Eagle's medium (DMEM, Invitrogen Life Technologies, Carlsbad, Calif.) supplemented with 10% fetal bovine serum, 2 mM glutamine, 100 units/ml penicillin, and 50 ug/ml streptomycin (Invitrogen Life Technologies, Carlsbad, Calif.). Cell cultures are transiently transfected with the elastin promoter-luciferase reporter construct (Elp2.2, a 2.2 kb elastin promoter fragment from nt −2267 to nt +2, driving the firefly luciferase gene, which may be obtained from Promega, Madison Wis.). DNA is prepared by Qiagen Maxi columns (Qiagen Valencia, Calif.). In all transfections, a construct with the thymidine kinase promoter and the Renilla luciferase reporter gene (pRL-TK, Promega, Madison Wis.) is included as an internal control. Typically, cells grown in 48-well plates are transfected with 0.45 ug total DNA per well using Lipofectamine 2000 (Invitrogen Life Technologies, Carlsbad, Calif.). One day after transfection, cells are treated with agents at indicated concentrations for approximately 24 hours before they are lysed for luciferase assays, using Dual-Luciferase Reporter System from Promega (Madison, Wis.), following manufacturer's protocol. The firefly luciferase activity is measured first (representing elastin promoter activity), followed by the renilla luciferase (internal control), using luminometer LMAX, from Molecular Devices (Sunnyvale, Calif.). The ratio of these two luciferase activities (RLU) is used to evaluate the Tropoelastin Promoter Activity. […]

[3] = 10 ug/ml, series of substituted resorcinols (Table 2)

With `CC1CCCC(=O)CCCCCc2cc(O)cc(O)c2C(=O)O1` (stereo not drawn) [Zearalanone] the “Percent NF-kB Inhibition” value [1, 3] was 50.95%.

In the case of `CCCCCCc1ccc(O)cc1O` [4-Hexylresorcinol], the “Percent Change Over Vehicle” value [2] is reported as −12%, the “Percent Change Over Vehicle” value ([2]; listed as 4-hexylresorcinol) is reported as −12% and the “Tropoelastin Promoter Activity” value ([2]; 24 h, vehicle 1.36 ± 0.33 (Table 3)) is reported as 1.2 ± 0.12. For the same compound, the “Percent NF-kB Inhibition” value ([1]; 1 ug/ml, TNFα 100 ng/ml stimulated FB293 cells, 24 h) was 1.9%, the “Percent NF-kB Inhibition” value ([1]; 5 ug/ml, TNFα 100 ng/ml stimulated FB293 cells, 24 h) was 50.9% and the “Percent NF-kB Inhibition” value ([1]; 10 ug/ml, TNFα 100 ng/ml stimulated FB293 cells, 24 h (Table 1)) was 72.9%. For the same compound, the “Percent NF-kB Inhibition” value [1, 3] was 92.4% and the “Percent NF-kB Inhibition” value ([1]; 50 ug/ml, TNFα 100 ng/ml stimulated FB293 cells, 24 h) was 91.4%.

With `CC1CCCC(O)CCCCCc2cc(O)cc(O)c2C(=O)O1` (stereo not drawn) [β-Zearalanol] the “Percent NF-kB Inhibition” value [1, 3] was 76.56%.

In the case of `C[C@H]1CCC[C@@H](O)CCC/C=C/c2cc(O)cc(O)c2C(=O)O1` [β-Zearalenol], the “Percent NF-kB Inhibition” value [1, 3] is reported as 87.1%.

In the case of `CCCCCCCCCCCC1c2cc(c(O)cc2O)C(CCCCCCCCCCC)c2cc(c(O)cc2O)C(CCCCCCCCCCC)c2cc(c(O)cc2O)C(CCCCCCCCCCC)c2cc1c(O)cc2O` (stereo not drawn) [C-Undecylcalix[4]-resorcinarene, C-Undecylcalix[4]-resorcinarene], the “Percent NF-kB Inhibition” value [1, 3] is reported as 4.87%.
